“Also recorded” adds a separate entry of the source. Peptide text beside a SMILES is read from it. * marks the point of attachment. Cbz = O=C(OCc1ccccc1)*
How the values were obtained:
96 cellular TFs = test: Transcription Factor Activation Profiling Array; assay type: cell-based, human; details: cisplatin treated vs nontreated KB-3-1 cells
Method: (§1) The Transcription Factor Activation Profiling Array detects activities of 96 cellular TFs, including HIF1, p53, and NF-kB, which are essential in regulating cellular gene expression. Among the 96 TFs, 6 were activated more than 1.8-fold when cells were treated with cisplatin, including GR/[…] (PR), NFAT, ATF2, CAR, and CBF. To investigate whether any of these TFs activate the MAST1 promoter, these 6 TFs were knocked down in KB-3-1 cells and a MAST1 promoter reporter activity assay was performed in the presence of cisplatin. Knockdown of GR but not other TFs attenuated MAST1 promoter activity. In addition, modulation of GR affected MAST1 promoter activity in the presence of cisplatin in cancer cells. Target downregulation or overexpression of GR abolished or enhanced MAST1 promoter activity in a cisplatin dose-dependent manner in KB-3-1 cells. In line with the changes seen in MAST1 mRNA, MAST1 protein level correlated with GR level in cancer cells (FIG. 3D).

MAST1 promoter = MAST1 promoter reporter activity assay; assay type: cell-based, human; details: pMAST1-luc reporter
Method: as §1
GR binds to the glucocorticoid response element (GRE) on DNA within the promoter region and regulates genes. A GRE was identified within the MAST1 promoter sequence at −44 to −58. […]

MAST1 [1] = test: MAST1 induction by cisplatin in cancer cell lines; assay type: cell-based, human; details: KB-3-1, A549, and A2780 cell lines
Method: (§2) Experiments were performed to determine whether MAST1 is induced by cisplatin treatment. Cell line-based studies indicate that MAST1 is increased upon cisplatin treatment in three cancer cell lines, KB-3-1, A549, and A2780. To validate this observation in vivo, cisplatin-resistant tumors were established by treating KB-3-1 bearing mice with sub-effective doses of cisplatin. The MAST1 gene was induced in xenografted tumors after cisplatin administration in mice. […] Cisplatin-resistant refers to patients with tumor recurrence within two years of cisplatin or carboplatin-based chemotherapy.

GR = GR intracellular location by immunofluorescence staining; assay type: cell-based, human; details: KB-3-1 cancer cell line
Text: To explore the molecular mechanism by which the transcription factor activity of GR is enhanced by cisplatin treatment, the intracellular location of GR in cisplatin-treated cells was investigated. GR resides predominantly in the cytoplasm as part of a heterooligomeric complex of HSP 40, 70, and 90 and other proteins. Binding to its agonist ligand changes the conformation of GR, which dissociates from the HSPs and possibly other protein factors, and translocates into the nucleus. The nuclear translocated GR is considered to be activated GR. Thus, experiment were performed to determine whether cisplatin treatment changes the cellular location of GR from the cytosol to the nucleus in cancer cells. […] This observation was confirmed in vivo in xenograft mice. […] Furthermore, the translocation of GR was found in paired primary HNSCC patient tumors. GR was located mainly in the cytosol in tumors collected from patients before cisplatin or carboplatin therapy, whereas the GR was predominantly stained in the nucleus in tumors collected from patients after the therapy. These experiments indicate that cisplatin treatment activates GR by translocating it to the nucleus in cancer cells.

[2] = system: KB-3-1 xenografted tumors; test: Xenograft mice bearing KB-3-1 tumors treated with cisplatin; assay type: in vivo
Method: as §2
To explore the molecular mechanism by which the transcription factor activity of GR is enhanced by cisplatin treatment, the intracellular location of GR in cisplatin-treated cells was investigated. GR resides predominantly in the cytoplasm as part of a heterooligomeric complex of HSP 40, 70, and 90 and other proteins. Binding to its agonist ligand changes the conformation of GR, which dissociates from the HSPs and possibly other protein factors, and translocates into the nucleus. The nuclear translocated GR is considered to be activated GR. Thus, experiment were performed to determine whether cisplatin treatment changes the cellular location of GR from the cytosol to the nucleus in cancer cells. […] This observation was confirmed in vivo in xenograft mice. […]

MEK1 [3] = test: MEK1 activity by p-MEK1 S217/S221 blot, GR antagonist or agonist with cisplatin; assay type: cell-based, human; details: KB-3-1 cells
Method: (§3) Loss of GR sensitizes cells to cisplatin. GR was inhibited by shRNA (top) or by antagonist (bottom) in the presence or absence of cisplatin. Cell viability and MEK activity was measured by CellTiter-Glo™ Luminescent Cell Viability assay and p-MEK1 S217/S221 blot, respectively. Cisplatin: 1 μg/ml, Mifepristone: 10 μM.
(§4) GR was enhanced by overexpression (top) or agonist (bottom) and cell viability and MEK1 activity was measured, cisplatin: 3 μg/ml, dexamethasone: 0.5 μM.
(§5) To investigate whether GR contributes to cisplatin resistance in cancer cells, GR was genetically or pharmacologically modulated and changes in cisplatin-resistant cancer cell proliferation as well as the activity of MEK1, which is the predominant substrate of MAST1, was monitored. […] Exogenous overexpression of myc tagged MAST1 restored the attenuated cisplatin-resistant cell growth and MEK1 activity in KB-3-1 cells with GR inhibition either by GR shRNA or GR antagonist mifepristone (FIG. 2A). […] In contrast, reduction of MAST1 by shRNA abolished the elevated cisplatin resistant cancer cell proliferation and MEK1 activity in KB-3-1 cells with activated GR either by flag-GR overexpression or GR agonist dexamethasone (FIG. 2C). Knockdown of MAST1 dramatically attenuated cisplatin resistant tumor growth in xenograft mice bearing flag-GR stably overexpressed KB-3-1 cells (FIG. 2D).

KB-3-1 cells = test: CellTiter-Glo Luminescent Cell Viability assay, GR antagonist or agonist with cisplatin; assay type: cell-based, human
Method: as §3, §4, §5

MAST1 [4] = test: MAST1 ubiquitination and degradation with proteasome inhibitor; assay type: cell-based, human
Method: (§6) The ubiquitination status of MAST1 in the presence and absence of hsp90 was assessed. […] This was further confirmed in cisplatin-resistant cancer cells.

MEK1 [5] = test: MEK1 activity in cisplatin-resistant cells upon 17-AAG treatment; assay type: cell-based, human; details: MAST1 WT
Method: (§7) Experiments were performed to determine whether ubiquitination of MAST1 at K317 and K545 upon hsp90 inhibition is involved in MAST1-mediated cisplatin-resistant cancer cell proliferation and tumor growth. […] The effect of MAST1 WT or 2KR was monitored in cells with MAST1 knockdown. […] This finding was further validated in vivo.

hsp90A = hsp90A (Homo sapiens, UniProt P07900)
hsp90B = hsp90B (Homo sapiens, UniProt P08238)
hsp90B, sequence (P08238 whole entry): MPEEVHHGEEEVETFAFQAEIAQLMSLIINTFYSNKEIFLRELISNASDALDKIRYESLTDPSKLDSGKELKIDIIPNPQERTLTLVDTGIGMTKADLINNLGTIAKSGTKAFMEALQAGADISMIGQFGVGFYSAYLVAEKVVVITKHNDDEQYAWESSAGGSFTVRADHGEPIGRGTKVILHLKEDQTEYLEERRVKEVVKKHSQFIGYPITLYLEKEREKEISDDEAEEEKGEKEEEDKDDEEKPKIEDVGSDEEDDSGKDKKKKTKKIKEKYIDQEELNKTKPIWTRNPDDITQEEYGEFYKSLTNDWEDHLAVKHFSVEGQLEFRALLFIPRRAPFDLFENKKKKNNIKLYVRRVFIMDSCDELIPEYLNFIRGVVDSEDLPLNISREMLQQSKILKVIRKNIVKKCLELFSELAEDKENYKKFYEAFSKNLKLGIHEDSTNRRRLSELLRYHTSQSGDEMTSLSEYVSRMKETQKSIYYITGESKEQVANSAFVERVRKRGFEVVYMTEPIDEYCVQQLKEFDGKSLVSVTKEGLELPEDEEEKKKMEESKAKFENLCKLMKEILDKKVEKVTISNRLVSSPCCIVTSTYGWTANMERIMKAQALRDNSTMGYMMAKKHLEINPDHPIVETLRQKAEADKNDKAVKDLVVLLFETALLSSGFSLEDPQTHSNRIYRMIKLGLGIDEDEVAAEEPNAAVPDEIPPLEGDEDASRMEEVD

[6] = system: KB-3-1cisR xenograft tumors; test: Xenograft mice bearing KB-3-1cisR tumors treated with 17-AAG and cisplatin; assay type: in vivo
Method: Mice were treated with cisplatin (5 mg/kg) and 17-AAG (50 mg/kg) from 5 days after xenograft.
(§8) These in vitro observations were confirmed in vivo.
as §7

MAST1 [7] = test: MAST1 protein level in cancer cells upon 17-AAG treatment; assay type: cell-based, human
Method: (§9) Proteins that interact with MAST1 in cells were investigated through 2-dimensional (2D) gel electrophoresis-based proteomic profiling. GST or GST-fused MAST1 was pulled down from human 293T cells. The protein captured by GST-MAST1 but not by GST alone was excised from the 2D gel. Through mass spectrometry-based (MS-based) proteomic analysis, hsp90B was identified as a potential binding partner of MAST1. […] Experiments were performed to determine whether the interaction is limited to the hsp90B isoform by comparing the interaction between MAST1 and hsp90B or hsp90A. Hsp90A, another isoform of hsp90, also binds to MAST1 in cisplatin-resistant cancer cells. Although hsp90A binds to MAST1 in cisplatin-resistant cancer cells, the interaction was weaker compared with hsp90B. […] Experiments were performed to determine whether treatment with 17-AAG, a selective inhibitor of hsp90, alters MAST1 protein levels in cells.
Through a MS-based proteomic analysis, it was identified that MAST1 is specifically ubiquitinated at lysine residues K317 and K545 upon hsp90 inhibition. To investigate whether these 2 residues are the main ubiquitination sites of MAST1 that mediate proteasomal degradation upon hsp90 inhibition, the lysine-to-arginine mutant forms of MAST1, K317R, K545R, and the double KR mutant K317R/K545R (2KR) were generated.
as §7

MAST1 mRNA = MAST1 mRNA expression upon 17-AAG treatment; assay type: cell-based, human
[8] = system: cisplatin-resistant cancer cells; test: Cisplatin response and cell viability of cisplatin-resistant cancer cells with 17-AAG; assay type: cell-based, human
Method: as §8, §7

AKT or cRaf = test: Protein levels of other hsp90 client proteins upon 17-AAG treatment; assay type: cell-based, human; details: same doses of 17-AAG as diminish MAST1
Method: as §9, §6

[9] = system: ovarian cancer and head and neck cancer PDX; test: Tumor volume in PDX mice treated with cisplatin, dexamethasone and lestaurtinib; assay type: in vivo; details: 5 mg/kg cisplatin, 0.1 mg/kg dexamethasone twice/week, 20 mg/kg lestaurtinib daily
Method: Tumor volumes were measured by caliper.
Therefore, we performed pilot experiments in vitro and in vivo to examine the concept.

GR, MAST1 = test: Dexamethasone effect on GR activity, MAST1 expression and cisplatin-resistant tumor growth; details: treatment with dexamethasone
[10] = cisplatin 1 μg/ml, mifepristone 10 μM
[11] = cisplatin 3 μg/ml, dexamethasone 0.5 μM

In the case of `N.N.[Cl][Pt][Cl]` [cisplatin], the “transcription factor activation (6 of 96 TFs incl. GR/PR, NFAT, ATF2, CAR, CBF)” value (96 cellular TFs) is reported as “more than 1.8 fold”, the “WT MAST1 promoter activity” value (MAST1 promoter) is reported as “induced WT MAST1 promoter activity” and the “MAST1 level upon cisplatin treatment” value (MAST1 [1]) is reported as “increased”. The GR cellular location (GR) was “translocated from the cytosol to the nucleus”, the “GR location in xenograft tumors” value ([2]; administration of cisplatin) was “nuclear translocation of GR” and the “MAST1 gene in xenografted tumors” value ([2]; after cisplatin administration in mice) was “induced”.

`CC#CC1(O)CCC2C3CCC4=CC(=O)CCC4=C3C(c3ccc(N(C)C)cc3)CC21C` (centres unmarked) [mifepristone, 11-(4-(dimethylamino)phenyl)-17-hydroxy-13-methyl-17-(prop-1-yn-1-yl)-1,2,6,7,8,11,12,13,14,15, 16,17-dodecahydro-3H-cyclopenta[a]phenanthren-3-one] was tested, and the “MEK1 activity (MEK1 phosphorylation at S217/S221)” value (MEK1 [3]; [10]) was “attenuated MEK1 activity” and the “cisplatin response (cell viability)” value (KB-3-1 cells; [10]) was “sensitized cancer cells to cisplatin treatment”.

`CC(C)C[C@@H](C=O)NC(=O)[C@H](CC(C)C)NC(=O)[C@H](CC(C)C)NC(=O)OCc1ccccc1` [MG-132] (Cbz-Leu-Leu-Leu-aldehyde) was tested, and the “17-AAG-mediated MAST1 degradation” value (MAST1 [4]; 293T cells) was “prevented 17-AAG-mediated MAST1 degradation” and the MAST1 ubiquitination (MAST1 [4]; proteasome inhibitor treatment) was “led to MAST1 ubiquitination”.

`C=CCNC1=C2CC(C)CC(OC)C(O)C(C)C=C(C)C(OC(N)=O)C(OC)C=CC=C(C)C(=O)NC(=CC1=O)C2=O` (centres unmarked) [17-AAG, 19-(allylamino)-13-hydroxy-8,14-dimethoxy-4,10,12,16-tetramethyl-3,20,22-trioxo-2-azabicyclo[16.3.1]docosa-1(21),4,6,10,18-pentaen-9-yl carbamate] was tested, and the “activity of the downstream substrate MEK1” value (MEK1 [5]) was “attenuated activity of the downstream substrate MEK1”, the “binding to hsp90A (SPR)” value (hsp90A) was “binds to both hsp90A and hsp90B” and the “binding to hsp90B (SPR)” value (hsp90B) was “binds to both hsp90A and hsp90B”. For the same compound, the “tumor growth, MAST1 2KR xenograft tumors” value ([6]; KB-3-1cisR MAST1 2KR, cisplatin (5 mg/kg) and 17-AAG (50 mg/kg)) was “resistant to these effects of 17-AAG treatment”, the “tumor growth, MAST1 WT xenograft tumors” value ([6]; KB-3-1cisR MAST1 WT, cisplatin (5 mg/kg) and 17-AAG (50 mg/kg)) was “attenuated tumor growth upon cisplatin exposure” and the “MAST1 protein level in xenograft tumors” value ([6]; xenograft mice, with cisplatin) was “decreased”. For the same compound, the “xenograft tumor response to cisplatin” value ([6]; xenograft mice, with cisplatin) was “sensitized xenograft tumors to cisplatin”, the “2KR MAST1 protein” value (MAST1 [7]; MAST1 K317R/K545R (2KR)) was “remained intact” and the “wild-type (WT) MAST1 protein” value (MAST1 [7]; MAST1 WT) was “degraded upon 17-AAG treatment in a dose-dependent manner”. The MAST1 protein levels (MAST1 [7]; cancer cells) was “diminished MAST1 protein levels in a dose-dependent manner; also recorded: decreased the level of MAST1”, the “MAST1 mRNA expression levels” value (MAST1 mRNA) was “remained unchanged” and the “cell viability and cisplatin resistance, cells expressing MAST1 2KR” value ([8]; MAST1 2KR, in the presence of cisplatin) was “no significant decrease in cell viability and cisplatin resistance”. For the same compound, the “cell viability and cisplatin resistance, cells expressing MAST1 WT” value ([8]; MAST1 WT, in the presence of cisplatin) was “sensitive to 17-AAG treatment”, the “cisplatin resistance of cisplatin-resistant cancer cells” value ([8]; with cisplatin) was “significantly sensitized cisplatin-resistant cancer cells to cisplatin” and the “protein levels of hsp90 client proteins AKT or cRaf” value (AKT or cRaf) was “insufficient to decrease”.

`CC1CC2C3CCC4=CC(=O)C=CC4(C)C3(F)C(O)CC2(C)C1(O)C(=O)CO` (centres unmarked) [dexamethasone, 9-fluoro-11,17-dihydroxy-17-(2-hydroxyacetyl)-10,13,16-trimethyl-6,7,8,9,10,11,12,13,14,15,16,17-dodecahydro-3H-cyclopenta [a]phenanthren-3-one] was tested, and the MEK1 activity (MEK1 [3]; [11]) was “reactivation of MEK1”, the “cisplatin response (cell viability)” value (KB-3-1 cells; [11]) was “conferred cisplatin resistance to cancer cells” and the “tumor growth (tumor volume)” value [9] was “abolished the cisplatin effect”. For the same compound, the “GR activity, MAST1 expression, cisplatin-resistant tumor growth” value (GR, MAST1) was “enhanced GR activity, MAST1 expression, and cisplatin-resistant tumor growth”.

Reference: patent publication US12527818B2, “Platinum-based chemotherapy, mast binding agents, glucocorticoid receptor (GR) binding agents, and/or HSP90 binding agents for uses in treating cancer” (Emory University, priority 2019, dated 2026)
